Results from patent US6372795B1, “Cosmetic compositions containing substituted amide derivatives” (Unilever Home and Personal Care USA, A Division of Conopco, …, priority 2000, dated 2002).
Several values for one entry are separate records, joined by “and”; a condition that tells them apart may be missing. Equal values may be shown once. Read-outs that look alike come from different tables or passages of the source.

Test system: human sebocytes
Test: Sebum suppression in secondary cultures of human sebocytes (14C-acetate label remaining in sebocytes)
Format: cell-based
Details: for % of Control / activity at 1 µM / activity at 10 µM: human sebocytes; for activity at 1 µM / activity at 10 µM: Homo sapiens, read-out: % of Control; for sebum suppressive activity in the presence of a retinoid (combined with retinol): compared with compound alone, summary in words
Description: Compounds A through G were tested for their potential to suppress sebum expression, alone or in the presence of a retinoid.
Secondary cultures of human sebocytes obtained from an adult […] were grown in 48-well tissue culture plates (Costar Corp.; Cambridge, Ma.) or 96-well tissue culture plates (Packard Co.; Meriden, Conn.) until confluent. Sebocyte growth medium consisted of Clonetics Keratinocyte Basal Medium (KBM) supplemented with 14 μg/ml bovine pituitary extract, 0.4 μg/ml hydrocortisone, 5 μg/ml insulin, 10 ng/ml epidermal growth factor, 1.2×10^-10 M cholera toxin, 100 units/ml penicillin, and 100 μg/ml streptomycin. All cultures were incubated at 37° C. in the presence of 7.5% CO2. Medium was changed three times per week.
On the day of experimentation, the growth medium was removed and the sebocytes washed three times with sterile Dulbecco's Modified Eagle Medium (DMEM; phenol red free). Fresh DMEM was added to each sample (duplicates, triplicates, or quadruplicates depending on the experiment) with 5 microliter of test agent solubilized in ethanol either alone or in the presence of one or 10 micromolar of retinol. Controls consisted of addition of ethanol alone, retinol alone, or phenol red, which has estrogen-like activity and is included as a positive control.
Each plate was returned to the incubator for 20 hours followed by the addition of 14C-acetate buffer (5 mM final concentration, 56 mCi/mmol specific activity). Sebocytes were returned to the incubator for four hours afterwhich each culture was rinsed three times with phosphate buffered saline to remove unbound label. Radioactive label remaining in the sebocytes was harvested and counted using a Beckman scintillation counter.

[1] = 10 μM test compound + 1 μM Retinol
[2] = 10 μM test compound + 10 μM Retinol
[3] = 1 μM test compound + 1 μM Retinol
[4] = 1 μM test compound + 10 μM Retinol
[5] = 1 μM test compound alone, 20 h + 4 h 14C-acetate

SMILES | activity at 1 µM [3] [%] | activity at 1 µM [4] [%] | activity at 1 µM [5] [%] | activity at 10 µM (10 μM test compound alone) [%] | sebum suppressive activity in the presence of a retinoid (combined with retinol) | also measured
CCOC(=O)c1ccc(NC(=O)Nc2ccc(O)cc2)cc1 [Compound F] | 71 | 76.2 | 84 | 57.4 | improved sebum suppressive activity | % of Control [1]: 53.1% and 73.4%; % of Control [2]: 63.4% and 40.4%; % of Control (10 μM test compound alone, 10 µM): 72.0%
Cc1cccc(N2CCN(C(=O)CC3C=CC(CC(=O)N4CCN(c5cccc(C)c5)C(C)C4)C3)CC2C)c1 (centres unmarked) [G] |  |  |  |  | improved sebum suppressive activity | 
CC1=C(/C=C/C(C)=C/C=C/C(C)=C/CO)C(C)(C)CCC1 [Retinol, retinol, reference compound] |  |  |  |  |  | % of Control (1 μM Retinol alone): 99.9%; % of Control (10 μM Retinol alone): 103.7% and 100.9% and 100.1%; sebum suppressive activity (substance alone, summary in words of Tables 1-12): inactive
CCOC(=O)c1ccc(NC(=O)Nc2cccc(C(C)O)c2)cc1 (centres unmarked) [Compound D] | 82.8 | 78 | 82.4 | 58.5 | improved sebum suppressive activity | activity at 10 µM [1]: 66.8%; activity at 10 µM [2]: 25%
O=C(Nc1ccc(O)cc1)Nc1cccc(C(F)(F)F)c1 [Compound E] |  |  |  |  | improved sebum suppressive activity | 
